# Laboratory results taken from patent publication US20120107323A1, “KINASE PROTEIN BINDING INHIBITORS” (University of Florida, priority 2009, published 2012).
# System: BT474 breast cancer cells
# Experiment: Cell viability (MTT), BT474
# Format: cell-based
# Conditions: Homo sapiens, BT-474; BT474, 72 hours; read-out: IC50 of INT2-31, cell viability
# Method: Cell viability (MTT) and CFSE Proliferation assay: Cells were plated in 96-well plates and let adhere overnight. After cell treatment, cell viability was measured by 3-(4,5-dimethylthiazol-2-yl)-2,5-diphenyl tetrazolium bromide (MTT) assay (CellTiter 96® Aqueous, Promega, Madison, Wis.).
# Cell viability and detachment assays: After cells were treated with siRNA transfection, cell viability was measured by 3-(4,5-dimethylthiazol2-yl)-2,5-diphenyl tetrazolium bromide (MTT) assay (CellTiter 96® AQueous, Promega, Madison, Wis.). Briefly, 20 μl of the tetrazolium compound was added to each well. The cells were then incubated at 37° C. for 1 h. The plate was read at 490 nm with a plate reader to determine the viability. In detachment assays, detached and attached cells were harvested separately and counted in a hemocytometer. The percentage of detachment was calculated by dividing the number of detached cells by the total number of cells. Apoptosis assays: After treatment, attached and detached cells were collected, counted and prepared for terminal uridine deoxynucleotidyl transferase (TUNEL) assay by utilizing an APO-BRDU kit (BD Pharmingen, San Diego, Calif.) according to the manufacturer's instructions. Stained cells were analyzed with a fluorescence-activated cell sorting-Calibur flow cytometer (BD Biosciences). […] Apoptotic cells were also analyzed by Hoechst staining. […]
compound,measurement,value
"CSc1ncnc2c1ccn2C1O[C@H](COP(=O)(O)O)[C@@H](O)[C@H]1O (stereo partly drawn) [INT2-31, 4-(Methylthio)-7-(5-O-phosphono-D-ribofuranosyl)-{7H-Pyrrolo[2,3-d]pyrimidine}]",IC50,2.39 µM
